Assay results taken from publication PMC11393731, “Sidechain structure–activity relationships of cyclobutane-based small molecule αvβ3 antagonists” (RSC Medicinal Chemistry, 2024).
“Also recorded” adds a separate entry of the source. Where two headings read alike, the source gives them in different places.

Key:
in vitro [1] = assay type: cell-based; conditions: human
Excerpt: (§1) Compounds were screened for non-specific cytotoxicity using the MTT assay before use in anti-αvβ3 functional assays. Unlike normal cells, cancer cell survival is often independent of αvβ3, and checking for cytotoxicity ensures inhibition of adhesion and invasion are truly from αvβ3 inhibition rather than cell death. […] In general, aminopyridines 53 and 54 were more cytotoxic than most THN-containing mimetics.
(§2) Cancer cell lines were obtained from ATCC (SK-Mel-2) or ECACC (U87-MG) and cultured in RPMI-1640 culture medium containing 10% foetal bovine serum (FBS), sodium pyruvate (1 mM) and L-glutamine (2 mM). All are human in origin. The αvβ3 adhesion assay was performed as previously described.[22,43]
(§3) Table S1 Cytotoxicity of compounds on the cell lines used in the functional assays (measured by MTT assay). Cells (2000 cells/well for Sk-Mel-2; 1000 cells/well for U87MG) were incubated for 96 hours at 37 °C in a total volume of 200 µL/well (180 μL medium + 20 μL test compound solution). After 96 hours, the medium was replaced by fresh medium containing 0.5 mg/ml (end conc.) MTT per well, incubated for 4 h then the plate processed and read as described in Sutherland et al. 1 […]
(§4) 1. M. Sutherland, A. Gordon, F. O. Al-Shammari, A. Throup, A. Cilia La Corte, H. Philippou, S. D.
(§5) Shnyder, L. H. Patterson and H. M. Sheldrake, Cancers, 2023, 15, 4023.
(§6) (also on this page, place not known: al.1 Supplementary Information (SI) for RSC Medicinal Chemistry. This journal is © The Royal Society of Chemistry 2024)
(§7) (1 picture or pasted object on this page, not shown here)

αvβ3 = target: T1, αvβ3 (Homo sapiens, UniProt P05106+P06756); assay: αvβ3-mediated SK-Mel-2 melanoma cell adhesion to fibronectin; assay type: cell-based; conditions: for inhibition at 5 µM: read-out: Adhesion % inhibition @5 μM
T1 construct: αvβ3-expressing U87-MG glioblastoma and SK-Mel-2 melanoma cells; host or cells: SK-Mel-2 human melanoma cells
Description: as §2

[2] = tested on: U87-MG glioblastoma cells; assay: U87-MG 3-D spheroid invasion assay; assay type: cell-based; conditions: Homo sapiens, U-87 MG, mean ± SD
Description: Selected compounds were further investigated for effects on αvβ3-mediated cell invasion to model a key step in tumour progression and metastasis. U87-MG glioblastoma cells; a well-known αvβ3-expressing cell line model,[35,36] were used in a 3-D spheroid invasion model.[37]
as §2
Spheroids were formed from U87-MG cells (1000 cells per 30 μl hanging drop) according to the method of Nowicki and then embedded in collagen as follows.[37] Collagen I (1400 μL of 3 mg mL^−1) was added to a 1 mL Eppendorf tube on ice, supplemented with 0.2 mL of complete RPMI, and adjusted to pH 7.4 with 1 N NaOH. The collagen mixture was pipetted into each chamber of an 8-chamber cover glass and incubated at 37 °C for 45 minutes. Spheroids from hanging drops were transferred to each chamber of the cover glass, the medium allowed to evaporate, and then a 200 μL layer of collagen gel matrix was added to each chamber and incubated at 37 °C for 45 minutes. 200 μL of RPMI containing test compounds was added to each chamber and incubated at 37 °C, 5% CO2 for 7 days. The spheroids were observed frequently using inverted light microscopy at 10× objective lens, and images were captured and analysed using ImageJ.

[3] = Metabolic stability in mouse liver homogenates; assay type: in vitro ADME; conditions: for half-life at 10 μM: liver homogenate (1:3), 37 °C, read-out: half-life of methyl ester cleavage to free acid
Description: The methyl esters in 1 and 54 were cleaved to the corresponding free acids with half-lives of 5.4 minutes and 3.6 minutes respectively (ESI ^†). This was expected as small esters are frequently used to mask carboxylic acids with rapid ester hydrolysis releasing the active carboxylic acid in biological systems.
Compound metabolism in liver (ex vivo) was studied using (1 : 3) tissue homogenates of mouse liver. Mouse livers, supplied by the Institute of Cancer Therapeutics (ICT), under Home Office license guidelines (see below) were homogenized in phosphate-buffered saline. Liver homogenates were spiked with compound of interest (10 μM final concentration) and incubated at 37 °C. Reaction aliquots were removed over a 120 minute period, proteins precipitated using acetonitrile (1 : 3), and compound and metabolites analyzed by liquid chromatography-mass spectrometry (LC–MS) at the appropriate SIR (single ion recording) channel.
Detection was performed on a Waters Alliance system using a photodiode array detector, and a Waters Micromass ZQ quadrupole electrospray mass spectrometer connected in series. Compound and metabolites were separated on a RPB reversed-phase high-performance liquid chromatography column (HiChrom) using a mobile phase of acetonitrile/water/0.1% formic acid, with a gradient from 20% to 70% acetonitrile over 30 minutes at 1.1 mL min^−1.
Any metabolic intermediates were detected as singularly charged ions and identified by mass spectrometry.

in vitro [4] = assay type: cell-based; conditions: human; remark: listed apart in the source
Excerpt: as §1, §2, §3, §4, §5, §6, §7

C57BL/6 mice = assay: In vivo dose tolerability in C57BL/6 mice; set-up: species or system mouse; conditions: intraperitoneal, 4 consecutive days, female C57BL/6 mice
Description: Given compound 54's effectiveness at functional inhibition of αvβ3, its rapid conversion to a stable carboxylic acid, and our preference for developing an aminopyridine-based RGD mimetic over a THN-based one, 54 was therefore selected for in vivo dose tolerability studies in an immunocompetent C57BL/6 mouse model (Fig. 2).
Compound 54 was administered intraperitoneally three dose levels, up to its maximum soluble dose of 300 mg kg^−1 per day, for 4 consecutive days to female C57BL/6 immunocompetent mice, and mice were observed daily, and bodyweight measured frequently. […] Mo = mouse; Cont = solvent control.
Female adult C57BL/6 mice were used (Envigo, Blackthorn, UK). Mice all came from the same delivery and were randomly assigned to cages. They were kept in cages housed in isolation cabinets in an air-conditioned room with regular alternating cycles of light and darkness. They received Teklad 2018 diet (Envigo, Blackthorn, UK) and water ad libitum.
For evaluation of the safety of compound 54in vivo, the compound was dissolved in 15% DMSO/arachis oil, and then administered intraperitoneally as a single dose on four consecutive days, with the first day designated day 0, with 2 mice being treated at each dose level. The control was solvent administered intraperitoneally on the same schedule. […] Mice were observed daily for signs of deleterious effects, and bodyweight measured frequently.

[5] = SK-Mel-2 adhesion to fibronectin, mean ± SD
[6] = read-out: Adhesion % inhibition @50 μM, SK-Mel-2 adhesion to fibronectin, mean ± SD
[7] = SK-MEL-2, read-out: Adhesion % inhibition @50 μM (initial trial experiment), initial trial experiment, not tested further at this concentration

T1 sequence (P06756 31-889 limits assumed): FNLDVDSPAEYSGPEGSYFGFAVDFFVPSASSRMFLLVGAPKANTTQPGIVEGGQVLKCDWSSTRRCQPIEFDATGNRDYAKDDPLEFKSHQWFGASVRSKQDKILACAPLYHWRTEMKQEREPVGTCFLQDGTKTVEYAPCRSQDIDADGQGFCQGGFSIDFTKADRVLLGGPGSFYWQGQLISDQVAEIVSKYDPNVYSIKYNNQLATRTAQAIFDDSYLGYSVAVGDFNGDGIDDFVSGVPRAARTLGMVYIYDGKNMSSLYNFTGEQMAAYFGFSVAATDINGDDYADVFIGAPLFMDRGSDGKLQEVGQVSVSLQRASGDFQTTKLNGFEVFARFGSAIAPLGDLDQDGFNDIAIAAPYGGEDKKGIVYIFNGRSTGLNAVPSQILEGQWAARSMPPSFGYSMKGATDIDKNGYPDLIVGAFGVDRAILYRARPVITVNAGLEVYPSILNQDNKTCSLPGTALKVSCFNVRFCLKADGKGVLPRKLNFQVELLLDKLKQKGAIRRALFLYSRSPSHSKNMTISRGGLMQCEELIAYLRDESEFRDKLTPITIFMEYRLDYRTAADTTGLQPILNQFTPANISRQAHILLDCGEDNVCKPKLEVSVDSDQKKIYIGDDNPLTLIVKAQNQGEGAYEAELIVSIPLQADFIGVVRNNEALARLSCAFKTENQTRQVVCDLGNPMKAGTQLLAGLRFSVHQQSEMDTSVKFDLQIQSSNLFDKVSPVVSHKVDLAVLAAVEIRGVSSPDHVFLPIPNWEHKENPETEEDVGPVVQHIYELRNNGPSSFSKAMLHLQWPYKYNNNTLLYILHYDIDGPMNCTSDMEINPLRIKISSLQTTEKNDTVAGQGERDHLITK
T1 sequence (P06756 891-1048 partner limits assumed): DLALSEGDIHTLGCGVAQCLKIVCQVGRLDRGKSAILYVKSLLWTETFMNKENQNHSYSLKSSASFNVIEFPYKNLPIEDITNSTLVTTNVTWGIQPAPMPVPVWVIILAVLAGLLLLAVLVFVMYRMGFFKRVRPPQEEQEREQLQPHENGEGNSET
T1 sequence (P05106 27-788): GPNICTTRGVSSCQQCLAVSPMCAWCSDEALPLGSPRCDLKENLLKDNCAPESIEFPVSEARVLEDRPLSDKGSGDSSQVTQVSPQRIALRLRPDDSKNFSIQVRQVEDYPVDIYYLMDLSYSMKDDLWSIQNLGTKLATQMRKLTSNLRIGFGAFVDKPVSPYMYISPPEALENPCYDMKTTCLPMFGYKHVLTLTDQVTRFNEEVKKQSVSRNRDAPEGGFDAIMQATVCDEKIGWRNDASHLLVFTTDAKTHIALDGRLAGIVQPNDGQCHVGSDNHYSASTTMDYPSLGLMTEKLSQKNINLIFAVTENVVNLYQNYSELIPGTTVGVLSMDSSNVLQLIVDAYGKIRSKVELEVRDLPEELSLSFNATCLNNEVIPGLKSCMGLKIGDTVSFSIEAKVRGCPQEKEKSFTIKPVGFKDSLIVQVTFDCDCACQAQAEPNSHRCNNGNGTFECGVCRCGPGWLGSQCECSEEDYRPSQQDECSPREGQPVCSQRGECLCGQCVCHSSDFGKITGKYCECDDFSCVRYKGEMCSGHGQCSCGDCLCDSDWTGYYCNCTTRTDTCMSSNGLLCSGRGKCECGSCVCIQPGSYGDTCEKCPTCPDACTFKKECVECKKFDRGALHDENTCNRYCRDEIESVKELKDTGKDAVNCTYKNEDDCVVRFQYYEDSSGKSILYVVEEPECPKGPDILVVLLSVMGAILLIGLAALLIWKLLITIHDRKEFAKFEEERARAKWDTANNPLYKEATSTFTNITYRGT

Row | IC50 (αvβ3; [5]) | inhibition at 5 µM (αvβ3; [5]) | IC50 at 96 h (in vitro [4]) | inhibition at 50 µM (αvβ3; [7]) | Structure (SMILES) | inhibition at 10 µM [2] | other results
1 | – | – | – | – | CC(C)[C@@H]1NC(=O)[C@@H](Cc2ccccc2)NC(=O)[C@H](CC(=O)O)NC(=O)CNC(=O)[C@H](CCCN=C(N)N)NC1=O [cRGDfV, reference compound] | – | IC50 at 96 h (in vitro [1]): 69.2 ± 25.5 µM
2 | 0.34 ± 0.33 µM | 98.4 ± 1.9% | – | – | COC(=O)[C@H](CNC(=O)[C@H]1C[C@@H](CCc2ccc3c(n2)NCCC3)C1)NS(=O)(=O)c1c(C)cc(C)cc1C [Compound 1] | 60.2 ± 0.2% | half-life at 10 μM [3]: 5.4 min
3 | – | 39.9 ± 23.8% | – | – | O=C1C[C@H](NS(=O)(=O)c2ccccc2)C(=O)N1[C@H]1C[C@@H](CCc2ccc3cccnc3n2)C1 [Compound 30] | 22.6 ± 4% | –
4 | – | – | > 50 µM | – | O=C(O)C[C@H](NS(=O)(=O)c1ccccc1)C(=O)N[C@H]1C[C@@H](CCc2ccc3cccnc3n2)C1 [Compound 38] | – | inhibition at 50 µM (αvβ3; [6]): 43 ± 31%
5 | – | – | – | – | COC(=O)[C@H](CCNC(=O)[C@H]1C[C@@H](Cc2ccc3cccnc3n2)C1)NS(=O)(=O)c1c(C)cc(C)cc1C [Compound 18] | 17.4 ± 3.7% | IC50 at 96 h (in vitro [1]): 59.2 ± 16.9 µM
6 | – | 71 ± 16% | 35.2 ± 6.5 µM | > 75% | CC(C)(C)OC(=O)C[C@H](NS(=O)(=O)c1ccccc1)C(=O)N[C@H]1C[C@@H](CCc2ccc3c(n2)NCCC3)C1 [Compound 39] | – | –
7 | – | – | – | – | COC(=O)[C@H](CC(=O)N[C@H]1C[C@@H](CCc2ccc3cccnc3n2)C1)NS(=O)(=O)c1c(C)cc(C)cc1C [Compound 29] | 70.4 ± 1.4% | inhibition at 50 µM (αvβ3; [6]): 56.6 ± 15.3%
8 | – | 57 ± 13% | > 50 µM | > 75% | COC(=O)[C@H](CCNC(=O)[C@H]1C[C@@H](CCc2ccc3c(n2)NCCC3)C1)NS(=O)(=O)c1ccccc1 [Compound 23] | – | –
9 | 1.8 ± 1 µM | – | 15.2 ± 5.5 µM | – | Cc1cc(C)c(S(=O)(=O)N[C@H]2CC(=O)N([C@H]3C[C@@H](CCc4ccc5c(n4)NCCC5)C3)C2=O)c(C)c1 [Compound 35] | – | inhibition at 0.5 µM (αvβ3; 0.5 μM, SK-Mel-2 adhesion to fibronectin): 45.6%
10 | – | – | – | – | COC(=O)[C@H](CCNC(=O)[C@H]1C[C@@H](Cc2ccc3cccnc3n2)C1)NS(=O)(=O)c1ccccc1 [Compound 17] | 23.3 ± 6.2% | inhibition at 50 µM (αvβ3; [6]): 13 ± 25%
11 | – | 67 ± 16% | > 50 µM | > 75% | O=C(O)C[C@H](NS(=O)(=O)c1ccccc1)C(=O)N[C@H]1C[C@@H](CCc2ccc3c(n2)NCCC3)C1 [Compound 40] | – | –
12 | – | – | – | – | COC(=O)[C@H](CC(=O)N[C@H]1C[C@@H](CCc2ccc3cccnc3n2)C1)NS(=O)(=O)c1ccccc1 [Compound 28] | 28.5 ± 4.4% | inhibition at 50 µM (αvβ3; [6]): 42.4 ± 16.3%
13 | 3.28 ± 0.01 µM | 60.2 ± 14.8% | – | – | O=C1C[C@H](NS(=O)(=O)c2ccccc2)C(=O)N1[C@H]1C[C@@H](CCc2ccc3c(n2)NCCC3)C1 [Compound 34] | 69.9 ± 1.8% | inhibition at 50 µM (αvβ3; [6]): 73.9 ± 24.6%
14 | – | 83 ± 19% | > 50 µM | > 75% | COC(=O)[C@H](CCNC(=O)[C@H]1C[C@@H](Cc2ccc3c(n2)NCCC3)C1)NS(=O)(=O)c1c(C)cc(C)cc1C [Compound 22] | 22.9 ± 5.7% | IC50 at 96 h (in vitro [1]): 46.4 ± 3.5 µM
15 | 49.5 ± 29.8 µM | 13.8 ± 9.7% | > 100 µM | – | Cc1cc(C)c(S(=O)(=O)N[C@H]2CC(=O)N([C@H]3C[C@@H](CCc4ccc5cccnc5n4)C3)C2=O)c(C)c1 [Compound 31] | – | inhibition at 50 µM (αvβ3; [6]): 60.9 ± 23.8%
16 | 1.2 ± 0.9 µM | 89.5 ± 8.7% | – | – | COC(=O)[C@H](CC(=O)N[C@H]1C[C@@H](CCc2ccc3c(n2)NCCC3)C1)NS(=O)(=O)c1c(C)cc(C)cc1C [Compound 33] | 33.7 ± 7.4% | –
17 | – | 45.4 ± 13.7% | – | – | COC(=O)[C@H](CC(=O)N[C@H]1C[C@@H](CCc2ccc3c(n2)NCCC3)C1)NS(=O)(=O)c1ccccc1 [Compound 32] | 41.6 ± 4.7% | –
18 | 29.4 ± 2.1 µM | 4 ± 9% | – | > 75% | COC(=O)[C@H](CCNC(=O)[C@H]1C[C@@H](Cc2ccc3c(n2)NCCC3)C1)NS(=O)(=O)c1ccccc1 [Compound 21] | 49.5 ± 8.8% | –
19 | 13.6 ± 8.3 µM | 50 ± 17% | > 50 µM | > 75% | CC(C)(C)OC(=O)C[C@H](NS(=O)(=O)c1ccccc1)C(=O)N[C@H]1C[C@@H](CCc2ccc3cccnc3n2)C1 [Compound 37] | – | –
20 | 1.8 ± 0.4 µM | 85 ± 1.4% | – | – | CNc1cccc(CC[C@H]2C[C@@H](C(=O)NC[C@H](NS(=O)(=O)c3ccccc3)C(=O)OC)C2)n1 [Compound 53] | 62.9 ± 1.5% | –
21 | 11.5 ± 5.3 µM | 43 ± 6% | – | > 75% | COC(=O)[C@H](CCNC(=O)[C@H]1C[C@@H](CCc2ccc3cccnc3n2)C1)NS(=O)(=O)c1c(C)cc(C)cc1C [Compound 20] | 55.7 ± 1.2% | –
22 | – | 54 ± 15% | > 50 µM | > 75% | COC(=O)[C@H](CCNC(=O)[C@H]1C[C@@H](CCc2ccc3cccnc3n2)C1)NS(=O)(=O)c1ccccc1 [Compound 19] | – | –
23 | – | – | – | – | CNc1cccc(CC[C@H]2C[C@@H](C(=O)NC[C@H](NS(=O)(=O)c3c(C)cc(C)cc3C)C(=O)O)C2)n1 [Compound 55] | – | stability of metabolite in liver ([3]; mouse liver homogenate): appears to be stable
24 | – | 74 ± 10% | – | > 75% | COC(=O)[C@H](CCNC(=O)[C@H]1C[C@@H](CCc2ccc3c(n2)NCCC3)C1)NS(=O)(=O)c1c(C)cc(C)cc1C [Compound 24] | 35 ± 9% | –

Row | Structure (SMILES) | IC50 (αvβ3; [5]) | inhibition at 5 µM (αvβ3; [5]) | IC50 at 96 h (in vitro [4]) | inhibition at 50 µM (αvβ3; [7]) | inhibition at 10 µM [2] | other results
25 | CNc1cccc(CC[C@H]2C[C@@H](C(=O)NC[C@H](NS(=O)(=O)c3c(C)cc(C)cc3C)C(=O)OC)C2)n1 [Compound 54] | 0.6 ± 0.7 µM | 84.9 ± 11.2% | – | – | 48.6 ± 1% | toxicity / deleterious effects (C57BL/6 mice; three dose levels up to 300 mg kg^−1 per day): No deleterious effects were observed; also recorded: non-toxic; bodyweight (C57BL/6 mice; up to 300 mg kg^−1 per day): remained within normal levels; half-life at 10 μM [3]: 3.6 min
